The text below walks through data of US20250215010A1, “DIAZABICYCLOOCTANE DERIVATIVES USEFUL AS MATRIX METALLOPROTEINASE INHIBITORS” (VASA THERAPEUTICS SPOLKA Z OGRANICZONA ODPOWIEDZIALNOSCIA, priority 2022, published 2025).

What all share (assay type): biochemical
The target in one experiment is T1, MMP2 (Homo sapiens, UniProt P08253).
T1 sequence (P08253 110-660): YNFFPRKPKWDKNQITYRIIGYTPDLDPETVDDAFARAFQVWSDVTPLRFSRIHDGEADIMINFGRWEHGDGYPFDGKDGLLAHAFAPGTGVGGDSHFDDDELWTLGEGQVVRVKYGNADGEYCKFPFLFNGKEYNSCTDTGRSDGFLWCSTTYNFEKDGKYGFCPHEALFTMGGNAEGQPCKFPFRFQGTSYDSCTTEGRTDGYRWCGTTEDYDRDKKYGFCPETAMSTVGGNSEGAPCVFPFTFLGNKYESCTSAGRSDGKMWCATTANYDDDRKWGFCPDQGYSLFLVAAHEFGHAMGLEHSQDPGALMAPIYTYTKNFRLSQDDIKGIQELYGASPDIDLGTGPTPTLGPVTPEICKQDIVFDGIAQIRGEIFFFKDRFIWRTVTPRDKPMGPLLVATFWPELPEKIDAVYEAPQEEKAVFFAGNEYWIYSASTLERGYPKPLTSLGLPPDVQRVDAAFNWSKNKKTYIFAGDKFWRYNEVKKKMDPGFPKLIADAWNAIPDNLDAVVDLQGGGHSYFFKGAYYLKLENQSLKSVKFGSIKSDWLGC
Nature of the experiment: MMP-2 colorimetric inhibition assay (Enzo kit BML-AK408). The gist of the method: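 Cleavage of the thiopeptide Ac-PLG-[2-mercapto-4-methylpentanoyl]-LG-OC2H5 releases a sulfhydryl that reacts with DTNB, read at 415 nm per the kit protocol. IC50 values (nM) come from inhibition curves of normalized data.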

For the next experiment, the target named is T2, MMP13 (Homo sapiens, UniProt P45452).
T2 construct: purchased Enzo Life Sciences, Inc. BML-AK412
Nature of the experiment: MMP-13 colorimetric inhibition assay (Enzo kit BML-AK412). An outline of the steps:
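Thiopeptide chromogenic substrate (Ac-PLG-[2-mercapto-4-methylpentanoyl]-LG-OC2H5); MMP-13 hydrolysis of the thioester yields a thiol that reacts with DTNB, read at 415 nm. IC50 values (nM) derived from inhibition curves of normalized data.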

The next experiment concerns the target T3, MMP1 (Homo sapiens, UniProt P03956).
T3 sequence (P03956 100-269 limits assumed): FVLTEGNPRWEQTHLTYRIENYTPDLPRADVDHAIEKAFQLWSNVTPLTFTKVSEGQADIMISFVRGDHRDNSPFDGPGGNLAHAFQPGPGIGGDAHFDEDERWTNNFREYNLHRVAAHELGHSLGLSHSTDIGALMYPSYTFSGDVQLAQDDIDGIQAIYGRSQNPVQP
Nature of the experiment: MMP-1 colorimetric inhibition assay (Enzo kit BML-AK404). The gist of the method: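 Colorimetric kit run per manufacturer protocol. MMP-1 cleaves a thiopeptide substrate (Ac-PLG-[2-mercapto-4-methylpentanoyl]-LG-OC2H5); released thiol reacts with DTNB, monitored at 415 nm. IC50 (nM) from inhibition curves of normalized values.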

The target of another experiment is MMP9 (Homo sapiens, UniProt P14780). Nature of the experiment: MMP-9 colorimetric inhibition assay (Enzo kit BML-AK410). The gist of the method:
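Colorimetric thioester-substrate assay: hydrolysis of Ac-PLG-[2-mercapto-4-methylpentanoyl]-LG-OC2H5 frees a thiol that reacts with DTNB, read at 415 nm. Run per kit protocol. IC50 (nM) taken from inhibition curves of normalized values.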

A further experiment addresses ADAM17 (TACE) (Homo sapiens, UniProt P78536). Briefly: TACE fluorometric inhibition assay (Enzo kit BML-AK310). An outline of the steps: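 Kit-based TACE assay run per manufacturer's protocol, using quenched fluorogenic peptide Mca-PLAQAV-Dpa-RSSSR-NH2 whose cleavage raises Mca fluorescence. Signal read at ex/em 320/420 nm; IC50 (nM) derived from inhibition curves of normalized values.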

Setting [1] is: thiopeptide substrate, absorbance 415 nm, read-out: MMP 2 IC50 class.
The mark [2] stands for this setting: thiopeptide substrate, absorbance 415 nm, read-out: MMP 13 IC50 class.
[3] abbreviates: thiopeptide substrate, absorbance 415 nm, read-out: MMP 1 IC50 class.
[4] abbreviates: thiopeptide substrate, absorbance 415 nm, read-out: MMP 9 IC50 class.
[5] abbreviates: quenched fluorogenic peptide, ex/em 320/420 nm, read-out: TACE IC50 class.

A word on the IC50: it is the concentration needed to halve the response being measured.

Read-outs that look alike come from different tables or passages of the source. A value given as a limit tells only on which side of the number the result lay.

Sequence of ADAM17 (TACE) (P78536 215-477 limits assumed): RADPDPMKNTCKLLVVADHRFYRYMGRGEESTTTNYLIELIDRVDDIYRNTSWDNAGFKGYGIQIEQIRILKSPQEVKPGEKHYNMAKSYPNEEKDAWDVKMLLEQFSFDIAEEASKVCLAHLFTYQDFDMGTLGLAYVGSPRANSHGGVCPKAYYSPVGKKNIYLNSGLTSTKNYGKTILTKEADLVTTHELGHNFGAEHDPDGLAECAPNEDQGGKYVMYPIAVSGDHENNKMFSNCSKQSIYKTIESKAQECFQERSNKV
Sequence of MMP9 (P14780 94-707): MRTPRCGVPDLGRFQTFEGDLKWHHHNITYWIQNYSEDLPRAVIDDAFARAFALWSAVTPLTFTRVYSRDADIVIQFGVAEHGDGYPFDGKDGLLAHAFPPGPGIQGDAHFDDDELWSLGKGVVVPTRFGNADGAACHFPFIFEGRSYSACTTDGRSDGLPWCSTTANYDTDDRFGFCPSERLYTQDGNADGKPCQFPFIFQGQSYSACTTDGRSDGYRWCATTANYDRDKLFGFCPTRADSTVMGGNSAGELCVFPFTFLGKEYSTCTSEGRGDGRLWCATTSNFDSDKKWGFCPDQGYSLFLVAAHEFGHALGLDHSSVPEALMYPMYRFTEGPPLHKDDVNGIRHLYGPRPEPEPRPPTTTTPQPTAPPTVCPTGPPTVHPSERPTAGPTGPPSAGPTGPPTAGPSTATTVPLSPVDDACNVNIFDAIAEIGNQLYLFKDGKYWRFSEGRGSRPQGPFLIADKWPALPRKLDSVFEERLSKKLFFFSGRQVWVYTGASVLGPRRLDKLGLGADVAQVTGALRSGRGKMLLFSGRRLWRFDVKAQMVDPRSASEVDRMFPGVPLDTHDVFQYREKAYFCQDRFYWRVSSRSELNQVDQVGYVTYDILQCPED

As to `CCN1CCC(Oc2ccc(S(=O)(=O)N3C[C@H]4CC[C@@H]([C@@H]3C(=O)NO)N4C(=O)OCCOC)cn2)CC1` [Example 74, 2-methoxyethyl (1S,2R,5R)-3-((6-((1-ethylpiperidin-4-yl)oxy)pyridin-3-yl)sulfonyl)-2-(hydroxycarbamoyl)-3,8-diazabicyclo[3.2.1]octane-8-carboxylate], the IC50 is more than 10000 nM on MMP2 (setting [1]); more than 10000 nM at MMP13 (setting [2]); more than 10000 nM on MMP1 (setting [3]); 1000 to 10000 nM on MMP9 (setting [4]); more than 10000 nM at ADAM17 (TACE) (setting [5]).
In the case of `O=C(NO)[C@H]1[C@@H]2CC[C@H](CN1S(=O)(=O)c1ccc(Oc3ccc(F)cc3)nc1)N2CC(=O)N1CCCC1` [Example 52, (1S,2R,5R)-3-((6-(4-fluorophenoxy)pyridin-3-yl)sulfonyl)-N-hydroxy-8-(2-oxo-2-(pyrrolidin-1-yl)ethyl)-3,8-diazabicyclo[3.2.1]octane-2-carboxamide], the IC50 was less than 50 nM at MMP2 (setting [1]); less than 50 nM on MMP13 (setting [2]); 1000 to 10000 nM at MMP1 (setting [3]); 50 to 1000 nM at MMP9 (setting [4]); more than 10000 nM on ADAM17 (TACE) (setting [5]).
In the case of `COCCOC(=O)N1[C@@H]2CC[C@H]1[C@H](C(=O)NO)N(S(=O)(=O)c1ccc(OC3CCC(OC)CC3)nc1)C2` (stereo partly drawn) [Example 11, 2-methoxyethyl (1S,2R,5R)-2-(hydroxycarbamoyl)-3-((6-((4-methoxy-cyclohexyl)oxy)-pyridin-3-yl)-sulfonyl)-3,8-diaza-bicyclo[3.2.1]octane-8-carboxylate], the IC50 against MMP2 is less than 50 nM; against MMP13 it was 50 to 1000 nM; at MMP1, 1000 to 10000 nM; against MMP9 it was less than 50 nM; against ADAM17 (TACE), 1000 to 10000 nM.
Turning to `COCCOC(=O)N1[C@@H]2CC[C@H]1[C@H](C(=O)NO)N(S(=O)(=O)c1ccc(OC3CCOCC3)nc1)C2` [Example 13, 2-methoxyethyl (1S,2R,5R)-2-(hydroxycarbamoyl)-3-((6-((tetrahydro-2H-pyran-4-yl)oxy)-pyridin-3-yl)sulfonyl)-3,8-diazabicyclo[3.2.1]-octane-8-carboxylate], the IC50 at MMP2 (setting [1]) was 50 to 1000 nM; at MMP13 (setting [2]), less than 50 nM; on MMP1 (setting [3]) it was 1000 to 10000 nM; at MMP9 (setting [4]), less than 50 nM; at ADAM17 (TACE) (setting [5]) it was 1000 to 10000 nM.
Take `COCCOC(=O)N1[C@@H]2CC[C@H]1[C@H](C(=O)NO)N(S(=O)(=O)N1CCN(C(=O)c3ccc(Cl)cc3)CC1)C2` [Example 78, 2-methoxyethyl (1S,2R,5R)-3-((4-(4-chlorobenzoyl)piperazin-1-yl)sulfonyl)-2-(hydroxycarbamoyl)-3,8-diazabicyclo[3.2.1]octane-8-carboxylate]: the IC50 at MMP2 (setting [1]) is 1000 to 10000 nM; at MMP13 (setting [2]) it was 1000 to 10000 nM; at MMP1 (setting [3]), more than 10000 nM; at MMP9 (setting [4]), 1000 to 10000 nM; at ADAM17 (TACE) (setting [5]), 1000 to 10000 nM.
As to `CCOC(=O)N1[C@@H]2CC[C@H]1[C@H](C(=O)NO)N(S(=O)(=O)N1CCC(Oc3ccnc(C(F)(F)F)c3)CC1)C2` [Example 50, ethyl (1S,2R,5R)-2-(hydroxy-carbamoyl)-3-((4-((2-(trifluoro-methyl)pyridin-4-yl)oxy)-piperidin-1-yl)-sulfonyl)-3,8-diazabicyclo-[3.2.1]octane-8-carboxylate], the IC50 at MMP2 (setting [1]) is 50 to 1000 nM; on MMP13 (setting [2]), 50 to 1000 nM; on MMP1 (setting [3]) it was more than 10000 nM; on MMP9 (setting [4]), 50 to 1000 nM; on ADAM17 (TACE) (setting [5]) it was 1000 to 10000 nM.
`CCn1cc(Oc2ccc(S(=O)(=O)N3C[C@H]4CC[C@@H]([C@@H]3C(=O)NO)N4C(=O)OCCOC)cn2)cn1` [Example 35, 2-methoxyethyl (1S,2R,5R)-3-((6-((1-ethyl-1H-pyrazol-4-yl)-oxy)pyridin-3-yl)-sulfonyl)-2-(hydroxycarbamoyl)-3,8-diaza-bicyclo[3.2.1]octane-8-carboxylate]: the IC50 at MMP2 (setting [1]) was less than 50 nM; on MMP13 (setting [2]), less than 50 nM; on MMP1 (setting [3]), 50 to 1000 nM; on MMP9 (setting [4]), less than 50 nM; at ADAM17 (TACE) (setting [5]) it was 50 to 1000 nM.
Regarding `COCCOC(=O)N1[C@@H]2CC[C@H]1[C@H](C(=O)NO)N(S(=O)(=O)c1ccc(Oc3cnn(C(C)C)c3)nc1)C2` [Example 37, 2-methoxyethyl (1S,2R,5R)-2-(hydroxycarbamoyl)-3-((6-((1-isopropyl-1H-pyrazol-4-yl)-oxy)pyridin-3-yl)-sulfonyl)-3,8-diazabicyclo-[3.2.1]octane-8-carboxylate], the IC50 on MMP2 (setting [1]) fell in the range of 50 to 1000 nM; at MMP13 (setting [2]), 50 to 1000 nM; at MMP1 (setting [3]), 1000 to 10000 nM; at MMP9 (setting [4]), 50 to 1000 nM; on ADAM17 (TACE) (setting [5]), 50 to 1000 nM.
Take `COCCOC(=O)N1[C@@H]2CC[C@H]1[C@H](C(=O)NO)N(S(=O)(=O)c1ccc(Oc3nc4ccc(Cl)cc4o3)c(F)c1)C2` [Example 80, 2-methoxyethyl (1S,2R,5R)-3-((4-((6-chlorobenzo[d]-oxazol-2-yl)oxy)-3-fluorophenyl)-sulfonyl)-2-(hydroxycarbamoyl)-3,8-diazabicyclo-[3.2.1]octane-8-carboxylate]: the IC50 is 1000 to 10000 nM at MMP2 (setting [1]); 1000 to 10000 nM on MMP13 (setting [2]); more than 10000 nM on MMP1 (setting [3]); 1000 to 10000 nM at MMP9 (setting [4]); 1000 to 10000 nM on ADAM17 (TACE) (setting [5]).
As for `COCCOC(=O)N1[C@@H]2CC[C@H]1[C@H](C(=O)NO)N(S(=O)(=O)c1cnc(Oc3ccc(F)cc3)c(F)c1)C2` [Example 6, 2-methoxyethyl (1S,2R,5R)-3-((5-fluoro-6-(4-fluoro-phenoxy)pyridin-3-yl)sulfonyl)-2-(hydroxycarbamoyl)-3,8-diazabicyclo[3.2.1]-octane-8-carboxylate], the IC50 at MMP2 (setting [1]) is less than 50 nM; at MMP13 (setting [2]), less than 50 nM; at MMP1 (setting [3]), 1000 to 10000 nM; at MMP9 (setting [4]), less than 50 nM; at ADAM17 (TACE) (setting [5]), 1000 to 10000 nM.
With `CN(C)C(=O)CN1[C@@H]2CC[C@H]1[C@H](C(=O)NO)N(S(=O)(=O)c1ccc(Oc3ccc(F)cc3)nc1)C2` [Example 51, (1S,2R,5R)-8-(2-(dimethylamino)-2-oxoethyl)-3-((6-(4-fluorophenoxy)pyridin-3-yl)sulfonyl)-N-hydroxy-3,8-diazabicyclo[3.2.1]octane-2-carboxamide], the IC50 at MMP2 (setting [1]) is less than 50 nM; at MMP13 (setting [2]) it was less than 50 nM; on MMP1 (setting [3]), 1000 to 10000 nM; at MMP9 (setting [4]) it was 50 to 1000 nM; at ADAM17 (TACE) (setting [5]) it was more than 10000 nM.
